{"source": "ChEMBL document CHEMBL5236635", "about": "“Structure-Based Drug Design and Synthesis of Novel N-Aryl-2,4-bithiazole-2-amine CYP1B1-Selective Inhibitors in Overcoming Taxol Resistance in A549 Cells” (J Med Chem, 2022)", "key": {"A549/TR [1]": {"test_system": "A549/TR", "assay": "Reversal of taxol resistance human A549/Taxol cells assessed as increase in sensitivity incubated for 72 hrs by MTT assay", "type": "functional, cell-based"}, "A549/TR [2]": {"test_system": "A549/TR", "assay": "Reversal of taxol resistance human A549/Taxol cells assessed as increase in sensitivity at 5 uM incubated for 72 hrs by MTT assay", "type": "functional, cell-based"}, "A549/TR [3]": {"test_system": "A549/TR", "assay": "Synergistic antiproliferative activity against human A549/Taxol cells assessed as increase in taxol by measuring combination index at 3.75 uM incubated for 72 hrs in presence of 0.06 uM taxol by MTT assay", "type": "functional"}, "A549/TR [4]": {"test_system": "A549/TR", "assay": "Synergistic antiproliferative activity against human A549/Taxol cells assessed as increase in taxol by measuring combination index at 3.75 uM incubated for 72 hrs in presence of 0.25 uM taxol by MTT assay", "type": "functional"}, "A549/TR [5]": {"test_system": "A549/TR", "assay": "Synergistic antiproliferative activity against human A549/Taxol cells assessed as increase in taxol by measuring combination index at 7.50 uM incubated for 72 hrs in presence of 1 uM taxol by MTT assay", "type": "functional", "conditions": "dose 7.5 µM"}, "A549/TR [6]": {"test_system": "A549/TR", "assay": "Synergistic antiproliferative activity against human A549/Taxol cells assessed as increase in taxol by measuring combination index at 15 uM incubated for 72 hrs in presence of 0.25 uM taxol by MTT assay", "type": "functional"}, "A549/TR [7]": {"test_system": "A549/TR", "assay": "Synergistic antiproliferative activity against human A549/Taxol cells assessed as increase in taxol by measuring combination index at 15 uM incubated for 72 hrs in presence of 1 uM taxol by MTT assay", "type": "functional"}, "A549/TR [8]": {"test_system": "A549/TR", "assay": "Synergistic antiproliferative activity against human A549/Taxol cells assessed as increase in taxol by measuring combination index at 30 uM incubated for 72 hrs in presence of 0.06 uM taxol by MTT assay", "type": "functional"}, "A549/TR [9]": {"test_system": "A549/TR", "assay": "Reversal of taxol resistance in human A549/Taxol cells assessed as increase in Rho123 accumulation at 2.5 to 10 uM incubated for 20 mins by multimode plate reader analysis", "type": "functional, cell-based", "conditions": "dose 2.5-10 µM"}, "A549/TR [10]": {"test_system": "A549/TR", "assay": "Reversal of taxol resistance in human A549/Taxol cells assessed as suppression of P-gp expression level at 2.5 to 10 uM incubated for 20 mins by multimode plate reader analysis", "type": "functional, cell-based", "conditions": "dose 2.5-10 µM"}, "[11]": {"target": "Mitogen-activated protein kinase; ERK1/ERK2 (Homo sapiens) (UniProt P27361+P28482)", "sequence (P27361 whole entry, looked up)": "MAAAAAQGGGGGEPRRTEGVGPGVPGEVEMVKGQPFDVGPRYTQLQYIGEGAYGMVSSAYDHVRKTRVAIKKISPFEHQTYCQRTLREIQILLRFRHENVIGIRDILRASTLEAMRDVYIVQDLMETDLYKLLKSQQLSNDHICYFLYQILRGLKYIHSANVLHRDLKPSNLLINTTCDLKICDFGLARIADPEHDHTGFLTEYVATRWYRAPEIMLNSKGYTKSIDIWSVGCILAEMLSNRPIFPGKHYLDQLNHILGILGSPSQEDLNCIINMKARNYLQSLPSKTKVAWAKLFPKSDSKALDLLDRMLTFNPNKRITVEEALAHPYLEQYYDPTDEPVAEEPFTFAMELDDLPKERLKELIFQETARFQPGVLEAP", "sequence (P28482 whole entry, looked up)": "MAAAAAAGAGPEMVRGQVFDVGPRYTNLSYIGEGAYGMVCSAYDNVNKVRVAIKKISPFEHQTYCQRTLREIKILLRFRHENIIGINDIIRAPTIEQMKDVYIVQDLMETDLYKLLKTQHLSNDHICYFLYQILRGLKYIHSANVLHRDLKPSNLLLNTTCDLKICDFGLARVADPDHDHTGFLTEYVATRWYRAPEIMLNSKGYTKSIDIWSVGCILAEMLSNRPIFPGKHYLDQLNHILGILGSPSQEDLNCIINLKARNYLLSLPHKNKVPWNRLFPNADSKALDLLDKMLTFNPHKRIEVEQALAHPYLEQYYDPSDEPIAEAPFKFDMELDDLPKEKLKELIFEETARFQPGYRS", "assay": "Inhibition of ERK1/2 pathway in human A549/Taxol cells assessed as decrease in phosphorylated ERK1/2 level at 2.5 to 5 uM incubated for 24 hrs", "type": "cell-based", "conditions": "dose 2.5-5 µM"}, "[12]": {"target": "Proto-oncogene tyrosine-protein kinase Src (Homo sapiens) (UniProt P12931)", "sequence (P12931 2-536 limits assumed)": "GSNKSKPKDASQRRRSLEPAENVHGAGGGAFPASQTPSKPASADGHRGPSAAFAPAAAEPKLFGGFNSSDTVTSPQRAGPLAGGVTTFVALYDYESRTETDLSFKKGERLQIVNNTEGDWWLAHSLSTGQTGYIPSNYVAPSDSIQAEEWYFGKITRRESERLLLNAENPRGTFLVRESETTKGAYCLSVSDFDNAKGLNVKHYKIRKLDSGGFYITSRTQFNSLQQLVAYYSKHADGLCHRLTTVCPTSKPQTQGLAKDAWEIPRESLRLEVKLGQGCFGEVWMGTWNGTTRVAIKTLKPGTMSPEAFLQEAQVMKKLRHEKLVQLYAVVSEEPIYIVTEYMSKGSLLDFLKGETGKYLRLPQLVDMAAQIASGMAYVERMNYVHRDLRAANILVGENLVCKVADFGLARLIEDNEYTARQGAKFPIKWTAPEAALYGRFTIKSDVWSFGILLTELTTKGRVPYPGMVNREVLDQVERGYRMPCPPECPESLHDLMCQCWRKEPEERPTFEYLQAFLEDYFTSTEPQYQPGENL", "assay": "Inhibition of SRC pathway in human A549/Taxol cells assessed as decrease in phosphorylated FAK level at 2.5 to 5 uM incubated for 24 hrs", "type": "cell-based", "conditions": "dose 2.5-5 µM"}, "A549/TR [13]": {"test_system": "A549/TR", "assay": "Upregulation of E-cadherin expression level in human A549/Taxol cells at 2.5 to 10 uM incubated for 24 hrs by densitometry analysis", "type": "functional, cell-based", "conditions": "dose 2.5-10 µM"}, "A549 [14]": {"test_system": "A549", "assay": "Inhibition of DMBA-induced AKT overexpression in human taxol resistance A549 cells incubated for 24 hrs", "type": "functional, cell-based", "conditions": "dose 5.0 µM"}, "NCI-H460 [15]": {"test_system": "NCI-H460", "assay": "Inhibition of DMBA-induced AKT overexpression in human taxol resistance NCI-H460 cells at 5 uM incubated for 24 hrs", "type": "functional, cell-based"}, "A549 [16]": {"test_system": "A549", "assay": "Antiproliferative activity against human taxol resistance human A549 cells assessed as reduction in cell viability incubated for 24 hrs by MTT assay", "type": "functional, cell-based", "conditions": "dose 5.0 µM"}, "A549 [17]": {"test_system": "A549", "assay": "Inhibition of DMBA-induced CYP1B1 overexpression in human A549 cells assessed as supression of FAK pathway at 5 uM incubated for 24 hrs by densitometry analysis", "type": "functional, cell-based"}, "A549 [18]": {"test_system": "A549", "assay": "Inhibition of cell migration in DMBA-induced human A549 cells at 5 uM incubated for 48 hrs by inverted microscopic analysis", "type": "functional, cell-based"}, "NCI-H460 [19]": {"test_system": "NCI-H460", "assay": "Inhibition of cell migration in DMBA-induced human NCI-H460 cells at 5 uM incubated for 48 hrs by inverted microscopic analysis", "type": "functional, cell-based"}, "A549 [20]": {"test_system": "A549", "assay": "Inhibition of cell invasion in DMBA-induced human A549 cells at 5 uM by optical microscopic analysis", "type": "functional, cell-based"}, "NCI-H460 [21]": {"test_system": "NCI-H460", "assay": "Inhibition of cell invasion in DMBA-induced human NCI-H460 cells at 5 uM by optical microscopic analysis", "type": "functional, cell-based"}, "NCI-H460 [22]": {"test_system": "NCI-H460", "assay": "Inhibition of DMBA-induced CYP1B1 overexpression in human NCI-H460 cells assessed as increase in snail level incubated for 24 hrs by densitometry analysis", "type": "functional, cell-based", "conditions": "dose 5.0 µM"}, "A549 [23]": {"test_system": "A549", "assay": "Inhibition of DMBA-induced CYP1B1 overexpression in human A549 cells assessed as increase in N-cadherin level incubated for 24 hrs by densitometry analysis", "type": "functional, cell-based", "conditions": "dose 5.0 µM"}, "A549 [24]": {"test_system": "A549", "assay": "Inhibition of DMBA-induced CYP1B1 overexpression in human A549 cells assessed as decrease in E-cadherin level incubated for 24 hrs by densitometry analysis", "type": "functional, cell-based", "conditions": "dose 5.0 µM"}, "NCI-H460 [25]": {"test_system": "NCI-H460", "assay": "Inhibition of DMBA-induced CYP1B1 overexpression in human NCI-H460 cells assessed as effect on E-cadherin level at 5 uM incubated for 24 hrs by densitometry analysis", "type": "functional, cell-based"}, "NCI-H460 [26]": {"test_system": "NCI-H460", "assay": "Inhibition of DMBA-induced CYP1B1 overexpression in human NCI-H460 cells assessed as effect on MMP-9 level at 5 uM incubated for 24 hrs by densitometry analysis", "type": "functional, cell-based"}, "A549 [27]": {"test_system": "A549", "assay": "Inhibition of DMBA-induced CYP1B1 overexpression in human A549 cells assessed as effect on MMP-9 level at 5 uM incubated for 24 hrs by densitometry analysis", "type": "functional, cell-based"}, "NCI-H460 [28]": {"test_system": "NCI-H460", "assay": "Inhibition of DMBA-induced CYP1B1 overexpression in human NCI-H460 cells assessed as decrease in Vimentin level at 5 uM incubated for 24 hrs by densitometry analysis", "type": "functional, cell-based"}, "CYP1B1": {"target": "T1, CYP1B1 (Homo sapiens, UniProt Q16678)", "T1 sequence (Q16678 whole entry)": "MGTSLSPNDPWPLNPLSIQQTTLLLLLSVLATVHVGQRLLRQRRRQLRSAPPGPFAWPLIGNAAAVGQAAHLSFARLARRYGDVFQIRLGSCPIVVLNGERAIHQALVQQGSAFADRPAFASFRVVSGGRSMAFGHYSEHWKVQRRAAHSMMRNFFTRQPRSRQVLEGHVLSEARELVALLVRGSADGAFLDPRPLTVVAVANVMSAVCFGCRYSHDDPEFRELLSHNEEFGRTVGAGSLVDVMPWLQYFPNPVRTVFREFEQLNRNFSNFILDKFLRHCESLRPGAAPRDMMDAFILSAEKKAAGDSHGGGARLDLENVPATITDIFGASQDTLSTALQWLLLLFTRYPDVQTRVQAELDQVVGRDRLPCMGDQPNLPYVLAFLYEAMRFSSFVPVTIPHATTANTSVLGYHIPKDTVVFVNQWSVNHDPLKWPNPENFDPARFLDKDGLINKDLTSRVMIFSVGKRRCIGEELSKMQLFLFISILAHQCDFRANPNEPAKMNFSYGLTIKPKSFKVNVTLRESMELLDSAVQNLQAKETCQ", "assay": "Inhibition of recombinant human CYP1B1 assessed as inhibition ratio at 100 nM using 7-ethyl-0-resorufin as substrate incubated for 30 mins in presence of NADPH by EROD assay relative to control", "conditions": "recombinant enzyme"}, "A549/Taxol": {"test_system": "A549/Taxol", "assay": "Inhibition of AKT pathway in human A549/Taxol cells assessed as decrease in phosphorylated AKT level at 5 uM incubated for 24 hrs", "type": "cell-based"}, "[29]": {"target": "Proto-oncogene tyrosine-protein kinase Src (Homo sapiens) (UniProt P12931)", "assay": "Inhibition of SRC pathway in human A549/Taxol cells assessed as decrease in phosphorylated FAK level at 5 uM incubated for 24 hrs", "type": "cell-based"}}, "note": "Calls of active or inactive are those of the source. The rule behind the calls is not given here.", "data": [{"molecule": "COc1cc(Nc2nc(-c3nc(-c4ccccc4F)cs3)cs2)cc(OC)c1", "values": [{"measurement": "Activity", "setting": "A549/TR [1]", "value": "Active"}, {"measurement": "Activity", "setting": "A549/TR [2]", "value": "Active"}, {"measurement": "CI", "setting": "A549/TR [3]", "value": 0.64}, {"measurement": "CI", "setting": "A549/TR [4]", "value": 0.55}, {"measurement": "CI", "setting": "A549/TR [5]", "value": 1.36}, {"measurement": "CI", "setting": "A549/TR [6]", "value": 0.3}, {"measurement": "CI", "setting": "A549/TR [7]", "value": 0.71}, {"measurement": "CI", "setting": "A549/TR [8]", "value": 0.09}, {"measurement": "Activity", "setting": "A549/TR [9]", "value": "Active"}, {"measurement": "Activity", "setting": "A549/TR [10]", "value": "Active"}, {"measurement": "inhibition", "setting": "[11]", "value": "Active"}, {"measurement": "inhibition", "setting": "[12]", "value": "Active"}, {"measurement": "Activity", "setting": "A549/TR [13]", "value": "Active"}]}, {"molecule": "COc1cc(/C=C/c2ccc(OC)cc2OC)cc(OC)c1", "values": [{"measurement": "inhibition", "setting": "A549 [14]", "value": "Dose-Dependent Effect"}, {"measurement": "inhibition", "setting": "NCI-H460 [15]", "value": "Active"}, {"measurement": "Activity", "setting": "A549 [16]", "value": "Dose-Dependent Effect"}, {"measurement": "inhibition", "setting": "A549 [17]", "value": "Active"}, {"measurement": "inhibition", "setting": "A549 [18]", "value": "Active"}, {"measurement": "inhibition", "setting": "NCI-H460 [19]", "value": "Active"}, {"measurement": "inhibition", "setting": "A549 [20]", "value": "Active"}, {"measurement": "inhibition", "setting": "NCI-H460 [21]", "value": "Active"}, {"measurement": "inhibition", "setting": "NCI-H460 [22]", "value": "Dose-Dependent Effect"}, {"measurement": "inhibition", "setting": "A549 [23]", "value": "Dose-Dependent Effect"}, {"measurement": "inhibition", "setting": "A549 [24]", "value": "Dose-Dependent Effect"}, {"measurement": "inhibition", "setting": "NCI-H460 [25]", "value": "inactive"}, {"measurement": "inhibition", "setting": "NCI-H460 [26]", "value": "inactive"}, {"measurement": "inhibition", "setting": "A549 [27]", "value": "inactive"}, {"measurement": "inhibition", "setting": "NCI-H460 [28]", "value": "inactive"}, {"measurement": "inhibition at 0.5 h, 0.1 µM", "setting": "CYP1B1", "value": 88.9, "unit": "%"}, {"measurement": "Activity", "setting": "A549/TR [1]", "value": "Active"}, {"measurement": "inhibition", "setting": "A549/Taxol", "value": "Active"}, {"measurement": "inhibition", "setting": "[29]", "value": "Active"}]}]}
